From US8455544B2, “Synthetic triterpenoids and methods of use in the treatment of disease” (Reata Pharmaecuticals, Inc., priority 2008, dated 2013)

Tests used:
patients with cancer = test: Phase I clinical trial in patients with cancer (solid tumor study): serum creatinine, eGFR; type: in vivo, human
Protocol: FIGS. 4A-B—RTA 402 reduces serum creatinine levels and increases the estimated glomerular filtration rate (eGFR) in human patients with cancer. FIG. 4A: Serum creatinine was measured in RTA 402-treated patients enrolled in a Phase I clinical trial for the treatment of cancer. The patients were administered RTA 402 (p.o.) once daily for 21 days at doses ranging from 5 to 1,300 mg/day. The percent reduction of serum creatinine relative to baseline levels is shown for the indicated study days. Significant decreases in serum creatinine levels were observed on Days 15 and 21. FIG. 4B: The estimated glomerular filtration rate (eGFR) was calculated for the patients in FIG. 4A. […] All patients: n=24; patients with baseline ≧1.5: n=5. For FIGS. 4A and 4B, * indicates p≦0.04; † indicates p=0.01, and ‡ indicates p≦0.01. Note: in FIG. 4A, “% Reduction from Baseline” on the vertical axis indicates percent change. For example, a reading of −15 on this axis indicates a 15% reduction in serum creatinine.
FIG. 5—RTA 402 increases GFR in human patients with cancer. Estimated glomerular filtration rate (eGFR) was measured in RTA 402-treated patients enrolled in a multi-month clinical trial for the treatment of cancer. All patients (n=11) dosed through six months were included in the analysis. The dosing information for these patients is provided in Example 5, below.
Serum creatinine has also been measured in patients with cancer enrolled in a Phase I clinical trial of RTA 402. These patients received RTA 402 once daily at doses from 5 to 1,300 mg/day for a total of twenty-one days every 28 days. A reduction in serum creatinine by greater than 15% was observed as early as eight days following treatment initiation and persisted through the end of the cycle (FIG. 4A). This reduction was maintained in those patients that received six or more cycles of treatment with RTA 402. […] In these patients, serum creatinine levels decreased progressively throughout the cycle such that the Day 21 levels were approximately 25% lower than baseline levels (FIG. 4A).
Some of these patients were enrolled in the Phase I study, whereas others were enrolled in a study of RTA 402 (in combination with gemcitabine) in patients with pancreatic cancer.

RAW264.7 macrophages = test: Cell viability, WST-1 reagent; type: cell-based; details: Mus musculus, RAW264.7 (20 ng/ml IFNγ)
[1] = Serum creatinine in toxicology study, monkeys; type: in vivo, cynomolgus monkeys; details: oral, once daily for 28 days
Protocol: FIGS. 3a-d—RTA 402 reduces serum creatinine levels in monkeys, dogs, and rats. (FIG. 3a) Cynomolgus monkeys were administered RTA 402 orally at the indicated doses once daily for 28 days. The percent reduction of serum creatinine on Day 28 in RTA 402-treated monkeys relative to vehicle-treated control monkeys is shown. (FIG. 3b) RTA 402 was administered orally to beagle dogs at the indicated doses daily for three months. Control animals received vehicle (sesame oil). The percent change in serum creatinine at the three-month time point relative to baseline is shown. (FIG. 3c) Sprague-Dawley rats were administered RTA 402 orally at the indicated doses once daily for a period of one month. The percent reduction of serum creatinine at study completion in RTA 402-treated rats relative to vehicle-treated control rats is shown. (FIG. 3d) Sprague-Dawley rats were administered the amorphous form of RTA 402 orally at the indicated doses once daily for a period of three months. The percent reduction of serum creatinine at study completion in RTA 402-treated rats relative to vehicle-treated control rats is shown. […] For example, a reading of −15 on this axis indicates a 15% reduction in serum creatinine.
Serum creatinine has been measured in several animal species treated with RTA 402 in the course of toxicology studies. […]

Q: What does the source list for `COC(=O)[C@]12CCC(C)(C)C[C@H]1[C@H]1C(=O)C=C3[C@@]4(C)C=C(C#N)C(=O)C(C)(C)[C@@H]4CC[C@@]3(C)[C@]1(C)CC2` [RTA 402, methyl-2-cyano-3,12-dioxooleana-1,9-dien-28-oic acid]?
A: Reduction in serum creatinine (patients with cancer; 5 to 1,300 mg/day once daily for 21 days every 28 days, as early as eight days following treatment initiation): greater than 15%; Serum creatinine lower than baseline levels (patients with cancer; Day 21, subset with baseline serum creatinine of at least 1.5 mg/dl): approximately 25%; Estimated glomerular filtration rate (eGFR) (patients with cancer; Phase I patients, 21 days): significantly improved; eGFR (patients with cancer; Pt 402, dose 5 mg, cycle 1 (28 days each), BL 109.7): 109.7; eGFR (patients with cancer; Pt 402, dose 5 mg, cycle 2, BL 109.7): 109.7; eGFR (patients with cancer; Pt 402, dose 5 mg, cycle 3, BL 109.7): 95.7; eGFR (patients with cancer; Pt 402, dose 5 mg, cycle 4, BL 109.7): 95.7; eGFR (patients with cancer; Pt 402, dose 5 mg, cycle 5, BL 109.7): 109.7; eGFR (patients with cancer; Pt 402, dose 5 mg, cycle 6, BL 109.7): 95.7; eGFR (patients with cancer; Pt 406, dose 80 mg, cycle 1, BL 94.2): 125.9; eGFR (patients with cancer; Pt 406, dose 80 mg, cycle 2, BL 94.2): 107.9; eGFR (patients with cancer; Pt 406, dose 80 mg, cycle 3, BL 94.2): 107.9; eGFR (patients with cancer; Pt 406, dose 80 mg, cycle 4, BL 94.2): 125.9; eGFR (patients with cancer; Pt 406, dose 80 mg, cycle 5, BL 94.2): 107.9; eGFR (patients with cancer; Pt 406, dose 80 mg, cycle 6, BL 94.2): 125.9; eGFR (patients with cancer; Pt 408, dose 150 mg, cycle 1, BL 73.2): 82.1; eGFR (patients with cancer; Pt 408, dose 150 mg, cycle 2, BL 73.2): 77.4; eGFR (patients with cancer; Pt 408, dose 150 mg, cycle 3, BL 73.2): 69.4; eGFR (patients with cancer; Pt 408, dose 150 mg, cycle 4, BL 73.2): 77.4; eGFR (patients with cancer; Pt 408, dose 150 mg, cycle 5, BL 73.2): 77.4; eGFR (patients with cancer; Pt 408, dose 150 mg, cycle 6, BL 73.2): 87.4; eGFR (patients with cancer; Pt 409, dose 150/300 mg, cycle 1, BL 48.4): 62.6; eGFR (patients with cancer; Pt 409, dose 150/300 mg, cycle 2, BL 48.4): 62.6; eGFR (patients with cancer; Pt 409, dose 150/300 mg, cycle 3, BL 48.4): 62.6; eGFR (patients with cancer; Pt 409, dose 150/300 mg, cycle 4, BL 48.4): 57.0; eGFR (patients with cancer; Pt 409, dose 150/300 mg, cycle 5, BL 48.4): 69.2; eGFR (patients with cancer; Pt 409, dose 150/300 mg, cycle 6, BL 48.4): 69.2; eGFR (patients with cancer; Pt 410, dose 300/600 mg, cycle 1, BL 49.9): 69.6; eGFR (patients with cancer; Pt 410, dose 300/600 mg, cycle 2, BL 49.9): 63.4; eGFR (patients with cancer; Pt 410, dose 300/600 mg, cycle 3, BL 49.9): 63.4; eGFR (patients with cancer; Pt 410, dose 300/600 mg, cycle 4, BL 49.9): 69.6; eGFR (patients with cancer; Pt 410, dose 300/600 mg, cycle 5, BL 49.9): 63.4; eGFR (patients with cancer; Pt 410, dose 300/600 mg, cycle 6, BL 49.9): 69.6; eGFR (patients with cancer; Pt 421, dose 1300/900 mg, cycle 1, BL 52.5): 58.6; eGFR (patients with cancer; Pt 421, dose 1300/900 mg, cycle 2, BL 52.5): 66.2; eGFR (patients with cancer; Pt 421, dose 1300/900 mg, cycle 3, BL 52.5): 75.8; eGFR (patients with cancer; Pt 421, dose 1300/900 mg, cycle 5, BL 52.5): 88.4; eGFR (patients with cancer; Pt 421, dose 1300/900 mg, cycle 6, BL 52.5): 75.8; eGFR (patients with cancer; Pt 427, dose 1300 mg, cycle 1, BL 70.1): 101.3; eGFR (patients with cancer; Pt 427, dose 1300 mg, cycle 2, BL 70.1): 78.3; eGFR (patients with cancer; Pt 427, dose 1300 mg, cycle 3, BL 70.1): 88.4; eGFR (patients with cancer; Pt 427, dose 1300 mg, cycle 4, BL 70.1): 101.3; eGFR (patients with cancer; Pt 427, dose 1300 mg, cycle 5, BL 70.1): 101.3; eGFR (patients with cancer; Pt 427, dose 1300 mg, cycle 6, BL 70.1): 101.3; % Serum Creatinine Decrease from Baseline (patients with cancer; all patients, n=45, Day 21): −18.3%; % of Patients with Decrease on Day 21 (serum creatinine) (patients with cancer; all patients, n=45, drug for at least 3 weeks): 87%; % of Patients with Decrease on Day 21 (serum creatinine) (patients with cancer; sub-set with elevated baseline serum creatinine levels, n=8): 100%; % Serum Creatinine Decrease from Baseline (patients with cancer; sub-set with elevated baseline serum creatinine levels, n=8, Day 21): −24.5%; IC50 (RAW264.7 macrophages): 80 nM; Serum creatinine levels relative to control animals [1]: Significant reductions
